From patent publication US7884103B2 (priority 2003, dated 2011) come the findings set out here.

In assay [1] the test system is Septoria nodorum (Glume blotch). Briefly: Septoria nodorum wheat leaf segment test, preventive fungicidal activity. Format: cell-based. To be noted: tested dose range 200 to 22 ppm, wheat leaf segments, assessed 4 dpi. As for the experimental part: Septoria nodorum (Glume blotch): Wheat leaf segments are placed on agar in a multiwell plate (24-well format) and sprayed with test solutions. After drying, the leaf disks are inoculated with a spore suspension of the fungus. After appropriate incubation the activity of a compound is assessed 4 dpi (days after inoculation) as preventive fungicidal activity. Within the tested dose range of 200 to 22 ppm the Compound No. 82 inhibited at least 80% of fungal growth.

Assay [2] concerns Plasmopara viticola on vines. Briefly: Action against Plasmopara viticola on vines, residual-protective action (D-1a). Format: in vivo. The settings on record: vine seedlings sprayed 24 hours before infection, evaluated after 6 days, untreated plants attack 60-100%. Here is the method:
(§1) Action Against Plasmopara Viticola on Vines
A) Residual-Protective Action
Fungus infestation is evaluated after incubation for 6 days at 95-100% relative humidity and +20° C.

For assay [3], the system named is Plasmopara viticola on vines. Briefly: Action against Plasmopara viticola on vines, residual-curative action (D-1b). Format: in vivo. The settings on record: vine seedlings sprayed 24 hours after infection, evaluated 6 days after infection, untreated plants attack 60-100%. As for the experimental part:
as §1
b) Residual-Curative Action
Vine seedlings are infected at the 4- to 5-leaf stage with a sporangia suspension of the fungus. […] After the spray coating has dried, the treated plants are placed in the humidity chamber again. Fungus infestation is evaluated 6 days after infection.

As for `CCOc1ccc(OCC(C)(NS(=O)(=O)Cc2ccccc2)C(=O)OC)cc1` (stereo not shown) [compound 082, 3-(4-Ethoxy-phenoxy)-2-methyl-2-phenylmethanesulfonylamino-propionic Acid Methyl Ester], the “inhibition of fungal growth” value in assay [1] is given as “at least 80%”.
A word on the inhibition: it is the relative decrease from the control value, in per cent. Read a high inhibition as a strong effect. Take `CCOc1ccc(OCC(C)(NS(=O)(=O)Cc2ccccc2)C(=O)N(C)OC)cc1` (stereo not shown) [compound 083, 3-(4-Ethoxy-phenoxy)-N-methoxy-2,N-dimethyl-2-phenylmethanesulfonylamino-propionamide]: the inhibition at 200 ppm in assay [2] and in assay [3] was 80 to 100% throughout.
Turning to `C#CCNC(=O)C(C)(COc1ccc(OCC)cc1)NS(=O)(=O)Cc1ccccc1` (stereo not shown) [compound 087, 3-(4-Ethoxy-phenoxy)-2-methyl-2-phenylmethanesulfonylamino-N-prop-2-ynyl-propionamide], the inhibition at 200 ppm in assay [2] and in assay [3] was 80 to 100% in each case.
With `CC(COc1ccc(-n2cncn2)cc1)(NS(=O)(=O)Cc1ccccc1)C(=O)O` (stereo not shown) [compound 100, 2-Methyl-2-phenylmethanesulfonylamino-3-(4-[1,2,4]triazol-1-yl-phenoxy)-propionic Acid], the inhibition at 200 ppm in assay [2] and in assay [3] was 80 to 100% in each case.
